Reference: patent US20210329919A9, “SYNTHESIS AND ANTI-CANCER ACTIVITY OF COMMUNESIN ALKALOIDS” (Massachusetts Institute of Technology, priority 2019, published 2021)
Converted amounts (≈) assume the structure as drawn. Read-outs that look alike come from different tables or passages of the source.

Legend:
A549 (lung carcinoma) = assay: Cell viability assay (Cell Titer-Glo), A549; assay type: cell-based, human; conditions: read-out: IC50 (μM) A549
Procedure: (§1) Cells were grown in media supplemented with fetal bovine serum (FBS) and antibiotics ([…] and 100 U/mL streptomycin). Specifically, experiments were performed using the following cell lines and media compositions: HeLa (cervical adenocarcimona) and A549 (lung carcinoma) were grown in RPMI-1640+10% FBS; HCT-116 (colorectal carcinoma) was grown in DMEM+10% FBS; DU-145 (prostate carcinoma) and MCF7 (breast adenocarcinoma) were grown in EMEM+10% FBS. Cells were incubated at 37° C. in a 5% CO2, 95% humidity atmosphere.
(§2) Cells were plated at 2000 cells/well into duplicate assay plates in 50 L media into 384-well white, opaque, tissue-culture treated plates and allowed to adhere overnight at 37° C./5% CO2. Compounds were solubilized in DMSO as 1000× stocks and 100 nl was pin-transferred to cells (V&P pin tool mounted on Tecan Freedom Evo MCA96). Compounds were tested in 10-pt, 2-fold dilution with concentrations tested between 1 nM-20 μM for most compounds, except where indicated. DMSO (32 wells of 384-wells) was used as vehicle control. After 72 hours of incubation at 37° C./5% CO2, 10 L Cell Titer-Glo (Promega) was added to each well and plates were incubated at room temperature for 10 minutes before the luminescence was read on a Tecan M1000 plate reader. Cell Titer-Glo measures ATP levels of cells as a surrogate for cell viability. All compound-treated wells was normalized to the DMSO control averages and expressed as a % of DMSO viability. IC50 values were determined from the dose curves using Spotfire (Perkin Elmer).

[1] = test system: DU-145 (prostate carcinoma); assay: Cell viability assay (Cell Titer-Glo), DU-145; assay type: cell-based, human; conditions: read-out: IC50 (μM) DU-145
Procedure: as §1, §2

[2] = test system: HCT-116 (colorectal carcinoma); assay: Cell viability assay (Cell Titer-Glo), HCT-116; assay type: cell-based, human; conditions: read-out: IC50 (μM) HCT-116
Procedure: as §1, §2

[3] = test system: HeLa (cervical adenocarcinoma); assay: Cell viability assay (Cell Titer-Glo), HeLa; assay type: cell-based, human; conditions: read-out: IC50 (μM) HeLa
Procedure: as §1, §2

[4] = test system: MCF7 (breast adenocarcinoma); assay: Cell viability assay (Cell Titer-Glo), MCF7; assay type: cell-based, human; conditions: read-out: IC50 (μM) MCF7
Procedure: as §1, §2

[5] = test system: human leukemia cell lines; conditions: array of human leukemia cell lines; cited from earlier work
[6] = test system: A549, DU-145, HCT116, HeLa and MCF7 cell lines; assay: Cytotoxicity across all five cancer cell lines (text summary of Table 1); conditions: for decrease in potency/activity relative to (−)-communesin B (4): N8-H or N8-formyl vs N8-methyl
Procedure: as §1, §2
With samples of all known communesin alkaloids and a selection of unnatural derivatives in hand, the anticancer activity for this entire class of natural products was explored. While previous isolation reports have evaluated the activity of selected natural communesins, no comprehensive comparison of the entire class of alkaloids across multiple cell lines has been performed.

[7] = test system: P-388 lymphocytic leukemia cells; conditions: cultured mouse P-388 lymphocytic leukemia cells; cited from earlier work
[8] = test system: third instar larvae of silkworms; conditions: cited from earlier work; for insecticidal activity compared with communesin B (4): silkworms
vasculogenesis = conditions: in vivo; cited from earlier work
[9] = cytotoxicity after 72 h of compound treatment, Cell Titer-Glo (ATP levels)
[10] = Homo sapiens, A549, cytotoxicity after 72 h of compound treatment, Cell Titer-Glo (ATP levels)
[11] = Homo sapiens, DU-145, cytotoxicity after 72 h of compound treatment, Cell Titer-Glo (ATP levels)
[12] = Homo sapiens, HCT-116, cytotoxicity after 72 h of compound treatment, Cell Titer-Glo (ATP levels)
[13] = Homo sapiens, cytotoxicity after 72 h of compound treatment, Cell Titer-Glo (ATP levels)
[14] = Homo sapiens, MCF7, cytotoxicity after 72 h of compound treatment, Cell Titer-Glo (ATP levels)

**Q.** What does the source list for CC(=O)N1CC[C@@]23c4ccccc4N[C@@H]4N(C)c5cccc6c5[C@@]42CCN([C@@H]6C=C(C)C)[C@@H]13 [(−)-1, (−)-communesin F]?
**A.** IC50 (A549 (lung carcinoma); [9]): 117 µM; IC50 [1, 9]: 119 µM; IC50 [2, 9]: > 125 µM; IC50 [3, 9]: 115 µM; IC50 [4, 9]: 84 µM

**Q.** What does the source list for CCC[C@H](O)CC(=O)N1CC[C@@]23c4ccccc4N[C@@H]4N(C)c5cccc6c5[C@@]42CCN([C@@H]13)[C@@H]6[C@H]1OC1(C)C [(−)-10, (−)-communesin I]?
**A.** IC50 (A549 (lung carcinoma); [9]): 120 µM; IC50 [1, 9]: > 125 µM; IC50 [2, 9]: > 125 µM; IC50 [3, 9]: 120 µM; IC50 [4, 9]: 90 µM

**Q.** Which anti-proliferative activity [5] does the source give for C/C=C/C=C/C(=O)N1CC[C@@]23c4ccccc4N[C@@H]4Nc5cccc6c5[C@@]42CCN([C@@H]13)[C@@H]6[C@H]1OC1(C)C [communesin C (5), (−)-communesin C] here?
**A.** moderate anti-proliferative activity

**Q.** With CC(=O)N1CC[C@@]23c4ccccc4N[C@@H]4Nc5cccc6c5[C@@]42CCN([C@@H]13)[C@@H]6[C@H]1OC1(C)C [(−)-3, (−)-communesin E] as the compound, how does the IC50 (A549 (lung carcinoma); [10]) read?
**A.** > 500 µM

**Q.** And the IC50 [1, 11]?
**A.** > 500 µM

**Q.** What about the IC50 [2, 12] of the same compound?
**A.** > 500 µM

**Q.** What about the IC50 [3, 13] of the same compound?
**A.** > 500 µM

**Q.** And the IC50 [4, 14]?
**A.** > 500 µM

**Q.** And the “cytotoxic potency across all cell lines (in words)” value [6]?
**A.** principally inactive

**Q.** With C/C=C/C=C/C(=O)N1CC[C@@]23c4ccccc4N[C@@H]4N(C)c5cccc6c5[C@@]42CCN([C@@H]13)[C@@H]6[C@H]1OC1(C)C [Communesin B (4), communesin B] as the compound, how does the “ED50, cytotoxicity” value [7] read?
**A.** 0.45 µg/mL (≈ 0.885 µM)

**Q.** And the “LD50, insecticidal” value ([8]; third instar larvae of silkworms, oral administration)?
**A.** 5 μg/g of diet

**Q.** For CC(=O)N1CC[C@@]23c4ccccc4N[C@@H]4N(C=O)c5cccc6c5[C@@]42CCN([C@@H]13)[C@@H]6[C@H]1OC1(C)C [(+)-43, (+)-N8-formyl communesin E], which IC50 (A549 (lung carcinoma); [10]) is on record?
**A.** > 250 µM

**Q.** And the IC50 [1, 11]?
**A.** > 250 µM

**Q.** What about the IC50 [2, 12] of the same compound?
**A.** > 250 µM

**Q.** And the IC50 [3, 13]?
**A.** > 125 µM

**Q.** What about the IC50 [4, 14] of the same compound?
**A.** > 250 µM

**Q.** What about the “cytotoxic potency across all cell lines (in words)” value [6] of the same compound?
**A.** principally inactive

**Q.** With C/C=C/C=C/C(=O)N1CC[C@@]23c4ccccc4N[C@@H]4N(C=O)c5cccc6c5[C@@]42CCN([C@@H]13)[C@@H]6[C@H]1OC1(C)C [communesin D (6), (+)-communesin D] as the compound, how does the anti-proliferative activity [5] read?
**A.** moderate anti-proliferative activity

**Q.** What about the “insecticidal activity compared with communesin B (4)” value [8] of the same compound?
**A.** lower insecticidal activities

**Q.** With CCCC(=O)N1CC[C@]23c4ccccc4N[C@H]4N(C)c5cccc6c5[C@]42CCN([C@H]6[C@@H]2OC2(C)C)[C@H]13 [(−)-8, (−)-communesin H] as the compound, how does the IC50 (A549 (lung carcinoma); [9]) read?
**A.** > 125 µM

**Q.** And the IC50 [1, 9]?
**A.** > 125 µM

**Q.** And the IC50 [2, 9]?
**A.** 109 µM

**Q.** And the IC50 [3, 9]?
**A.** 82 µM

**Q.** What about the IC50 [4, 9] of the same compound?
**A.** 90 µM

**Q.** Which “insecticidal activity compared with communesin B (4)” value [8] does the source give for CC(=O)N1CC[C@@]23c4ccccc4N[C@@H]4N(C)c5cccc6c5[C@@]42CCN([C@@H]6C=C(C)C)[C@@H]13 [Communesin F (1), (−)-communesin F] here?
**A.** lower insecticidal activities

**Q.** With C/C=C/C=C/C(=O)N1CC[C@@]23c4ccccc4N[C@@H]4Nc5cccc6c5[C@@]42CCN([C@@H]13)[C@@H]6[C@H]1OC1(C)C [(−)-5, (−)-communesin C] as the compound, how does the IC50 (A549 (lung carcinoma); Homo sapiens, A549, 72 h) read?
**A.** 115 µM

**Q.** What about the IC50 ([1]; Homo sapiens, DU-145, 72 h) of the same compound?
**A.** 82 µM

**Q.** What about the IC50 ([2]; Homo sapiens, HCT-116, 72 h) of the same compound?
**A.** 106 µM

**Q.** And the IC50 ([3]; Homo sapiens, 72 h)?
**A.** 94 µM

**Q.** What about the IC50 ([4]; Homo sapiens, MCF7, 72 h) of the same compound?
**A.** 65 µM

**Q.** And the “decrease in potency/activity relative to (−)-communesin B (4)” value [6]?
**A.** two- to threefold decrease in activity

**Q.** Which IC50 (A549 (lung carcinoma); [10]) does the source give for CC(=O)N1CC[C@@]23c4ccccc4N[C@@H]4N(C)c5cccc6c5[C@@]42CCN([C@@H]13)[C@@H]6[C@H]1OC1(C)C [(−)-2, (−)-communesin A] here?
**A.** > 125 µM

**Q.** What about the IC50 [1, 11] of the same compound?
**A.** > 250 µM

**Q.** What about the IC50 [2, 12] of the same compound?
**A.** > 250 µM

**Q.** What about the IC50 [3, 13] of the same compound?
**A.** > 125 µM

**Q.** And the IC50 [4, 14]?
**A.** > 250 µM

**Q.** And the “cytotoxic potency across all cell lines (in words)” value [6]?
**A.** principally inactive

**Q.** For C/C=C/C=C/C(=O)N1CC[C@@]23c4ccccc4N[C@@H]4N(C)c5cccc6c5[C@@]42CCN([C@@H]13)[C@@H]6[C@H]1OC1(C)C [(−)-communesin B], which “cytotoxic potency across all cell lines (in words)” value ([6]; A549, DU-145, HCT116, HeLa, MCF7) is on record?
**A.** most potent natural isolate

**Q.** With C/C=C/C=C/C(=O)N1CC[C@@]23c4ccccc4N[C@@H]4N(C)c5cccc6c5[C@@]42CCN([C@@H]13)[C@@H]6[C@H]1OC1(C)C [(−)-communesin B (4)] as the compound, how does the “cytotoxic potency across all cell lines (in words)” value [6] read?
**A.** highest potency of all the natural products tested

**Q.** For C/C=C/C=C/C(=O)N1CC[C@@]23c4ccccc4N[C@@H]4N(C)c5cccc6c5[C@@]42CCN([C@@H]13)[C@@H]6[C@H]1OC1(C)C [(−)-4, (−)-communesin B], which IC50 (A549 (lung carcinoma); [10]) is on record?
**A.** 56 µM

**Q.** And the IC50 [1, 11]?
**A.** 45 µM

**Q.** What about the IC50 [2, 12] of the same compound?
**A.** 60 µM

**Q.** What about the IC50 [3, 13] of the same compound?
**A.** 47 µM

**Q.** And the IC50 [4, 14]?
**A.** 34 µM

**Q.** Which IC50 (A549 (lung carcinoma); Homo sapiens, A549, 72 h) does the source give for C/C=C/C=C/C(=O)N1CC[C@@]23c4ccccc4N[C@@H]4N(C=O)c5cccc6c5[C@@]42CCN([C@@H]13)[C@@H]6[C@H]1OC1(C)C [(+)-6, (+)-communesin D] here?
**A.** > 125 µM

**Q.** And the IC50 ([1]; Homo sapiens, DU-145, 72 h)?
**A.** 84 µM

**Q.** And the IC50 ([2]; Homo sapiens, HCT-116, 72 h)?
**A.** 111 µM

**Q.** And the IC50 ([3]; Homo sapiens, 72 h)?
**A.** 63 µM

**Q.** What about the IC50 ([4]; Homo sapiens, MCF7, 72 h) of the same compound?
**A.** > 125 µM

**Q.** And the “decrease in potency/activity relative to (−)-communesin B (4)” value [6]?
**A.** two- to threefold decrease in activity

**Q.** Which “ED50, cytotoxicity” value [7] does the source give for CC(=O)N1CC[C@@]23c4ccccc4N[C@@H]4N(C)c5cccc6c5[C@@]42CCN([C@@H]13)[C@@H]6[C@H]1OC1(C)C [Communesin A (2), (−)-communesin A] here?
**A.** 3.5 µg/mL (≈ 7.67 µM)

**Q.** And the “insecticidal activity compared with communesin B (4)” value [8]?
**A.** lower insecticidal activities

**Q.** What about the vasculogenetic activity (vasculogenesis) of the same compound?
**A.** moderate vasculogenetic activity

**Q.** Which IC50 (A549 (lung carcinoma); [9]) does the source give for CCC(=O)N1CC[C@]23c4ccccc4N[C@H]4N(C)c5cccc6c5[C@]42CCN([C@H]6[C@@H]2OC2(C)C)[C@H]13 [(−)-7, (−)-communesin G] here?
**A.** > 125 µM

**Q.** And the IC50 [1, 9]?
**A.** > 125 µM

**Q.** And the IC50 [2, 9]?
**A.** > 125 µM

**Q.** And the IC50 [3, 9]?
**A.** > 125 µM

**Q.** And the IC50 [4, 9]?
**A.** > 250 µM

**Q.** What about the “cytotoxic potency across all cell lines (in words)” value [6] of the same compound?
**A.** principally inactive
